Values of other authors as cited in patent publication US9062045B2, “Triazolopyridine compounds” (Novartis AG, priority 2012, dated 2015).
Like-named read-outs stand apart in the source and are kept apart here.

Legend:
[1] = patients treated with SGX523; cited from earlier work
[2] = monkey liver S-9; cited from earlier work
[3] = human liver S-9; cited from earlier work
[4] = dog S-9 incubations; cited from earlier work
[5] = cited from earlier work

Cn1cc(-c2ccc3nnc(Sc4ccc5ncccc5c4)n3n2)cn1 [Comparator No. 4 (SGX523), 6-[6-(1-Methyl-1H-pyrazol-4-yl)-[1,2,4]triazolo[4,3-b]pyridazin-3-ylsulfanyl]-quinoline]
renal function of patients [1]: compromised renal function | generation of metabolite M11 [2]: generated | generation of metabolite M11 [3]: generated | generation of metabolite M11 [4]: absent

Cn1cc(-c2ccc3nnc(Sc4ccc5[nH]c(=O)ccc5c4)n3n2)cn1 [2-quinolinone-SGX523 metabolite, 6-(6-(1-methyl-1H-pyrazol-4-yl)-[1,2,4]triazolo[4,3-b]pyridazin-3-ylthio)quinolin-2(1H)-one]
solubility compared with SGX523 [5]: markedly less-soluble
